Test results from patent publication US10626126B2, “Compounds” (Pulmocide Limited, priority 2016, dated 2020).
pIC50: −log10 of the molar value. Entries after “also recorded” stand apart in the source; their conditions may differ.

Assays:
[1] = Cell viability: resazurin assay; format: cell-based; conditions: human, HEp2 cells
RSV A2 strain = assay: RSV A2 induced CPE in HEp2 cells; format: cell-based; conditions: human respiratory syncytial virus
Procedure, shortened: (§1)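 HEp2 cells in 5% FBS-DMEM were seeded one day before infection, then virus and compound were added together (0.5% DMSO final). A fluorogenic viability dye was added for a further 6 h at 37 °C, and fluorescence was read at 545/590 nm. Percent inhibition gave IC50, IC75 and IC90 from concentration-response curves.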

RANTES gene = assay: RSV infection in cotton rats: RANTES gene expression in lung (qRT-PCR); conditions: intranasal
Description: (§2) Male Sigmodon hispidus cotton rats between 6 and 8 weeks of age were infected with hRSV/A/Long (ATCC, Manassas, Va.; 10^5 pfu) in a volume of 0.1 mL of sucrose stabilizing media. Test compounds were dissolved in 100% DMSO (at 3.3, 10, 33 and 100 mg/mL), then diluted (1:10 in isotonic saline to achieve 10% DMSO in all treatments) and sonicated to produce suspensions which were administered intranasally (50 μL) by pipette 4 hr before infection (on day 0), and then on days 1, 2 and 3 post infection. Four days after RSV challenge, the animals were euthanised and the lungs removed.
Total RNA was also extracted from homogenized lung tissue (RNeasy purification kit; Qiagen) and a sample (1 μg) used to prepare cDNA using QuantiTect Reverse Transcription Kit (Qiagen). For real-time PCR reactions (RSV NS-1 and RANTES genes) the QuantiFast SYBR® Green PCR Kit (Qiagen) was used in a final volume of 25 μL, with final primer concentrations of 0.5 μM. Amplifications were performed on a Bio-Rad iCycler for 1 cycle of 950C for 3 min, followed by 40 cycles of 950C for 10 sec, 600C for 10 sec, and 720C for 15 sec. Baseline cycles and cycle threshold (Ct) were calculated by the iQ5 software in the PCR Base Line Subtracted Curve Fit mode.
The standard curves were developed using the serially diluted cDNA sample most enriched in the transcript of interest (e.g., lungs from day 4 post-primary RSV infection). The Ct values were plotted against log10 cDNA dilution factor and the curves were used to convert the Ct values obtained for different samples to relative expression units, which were then normalized against the level of R-actin mRNA (“housekeeping gene”) expressed in the corresponding sample. The mRNA levels were expressed as the geometric mean±SEM for all animals in a group.

RSV A2 [2] = assay: RSV F protein expression in BEAS2B bronchial epithelial cells; format: cell-based; conditions: human respiratory syncytial virus, BEAS-2B, n=2
Description: An early event which follows the infection of epithelial cells by RSV is the expression of RSV F-protein on the cells' surface. BEAS2B cells were grown in 96 well plates. […] Supernatant was aspirated and the cells were fixed with 4% formaldehyde (100 μL in PBS solution) for 20 min, washed 3 times with washing buffer (200 μL; PBS containing 0.05% Tween-20) and incubated with blocking solution (100 μL; 5% BSA in washing buffer) for 1 hr. […] No. ab43812, Abcam plc, Cambridge, UK) F-fusion protein antibody (50 μL; prepared at a 1:2000 dilution in 5% BSA/washing buffer). After washing, cells were incubated with an HRP-conjugated anti-mouse IgG antibody (50 μL prepared at a 1:2000 dilution in 5% BSA in PBS; lot 00095437, Cat. No. P0447, Dako UK Ltd, Cambridgeshire, UK) for 1 hr. […] The resultant signal was determined colourimetrically (OD: 450 nm with a reference wavelength of 655 nm) in a microplate reader (Multiskan FC®, ThermoFisher Scientific). […] After washing with PBS (200 μL) 2 times, 1% SDS (100 μL) was added to each well, and plates were shaken lightly for 1 hr prior to reading the absorbance at 595 nm. The measured OD450-655 readings were corrected for cell number by dividing the OD450-655 by the OD595 readings. The percentage inhibition for each well was calculated and the IC50 value derived from the concentration-response curve generated for each test compound.

RSV A2 [3] = assay: Virus titre in air-liquid interface (ALI) cultured bronchial epithelial cells; conditions: for Virus titre in apical wash, geometric mean: late intervention (days 3-7), 0.1 mg/mL
Description: ALI cultured human bronchial epithelial cells were sourced from Epithelix Sarl (Geneva, Switzerland) and maintained by changing the basal media every 3-4 days, whilst the apical surface was washed once weekly with PBS. On day 0, the apical surface of each well was washed once with sterile PBS (300 μL) and the inserts transferred to new 24-well plates containing fresh MucilAir culture medium (780 μL; EP04MM). RSV A2 (50 μL; diluted in MucilAir culture medium to give a final MOI of 0.01) was added to cells for one hr (37° C./5% CO2). For the purposes of standardizing MOI calculations, each MucilAir insert was estimated to contain 2×10^5 apical facing cells per well. Virus inoculum was removed with a pipette and inserts were washed twice with sterile PBS (300 μL).
Sampling was conducted by adding sterile PBS (300 μL) to the apical surface of each well for 5 min. The apical sample was then removed and transferred to tubes containing 50% sucrose dissolved in PBS (100 μL) before being stored at −80° C. This harvesting procedure was repeated daily beginning on day 0 and concluding on day 10.
The test compound (50 μL in 0.5% DMSO/PBS) was added to the apical surface and incubated (37° C./5% CO2) for 1 hr before being removed. Vehicle treatments (0.5% DMSO/PBS) were performed on the corresponding apical surfaces to ensure each well received the same number of manipulations. On day 5, the basal media was removed from each well and replenished with fresh MucilAir culture media as a necessary maintenance step for ALI culture cells.
Virus titre was quantified by plaque assay. HEp2 cells were grown in 24-well plates (Corning) for 48 hr prior to infection in DMEM containing 10% FBS until they attained 100% confluency.
Collected samples were thawed at RT and ten-fold serial dilutions were prepared in serum-free DMEM. The growth medium from HEp2 cells was aspirated and replaced with 300 μL of serially diluted virus collections and left to infect at 37° C./5% CO2 for 4 hr. The infectious media was aspirated and replaced with 1 mL Plaque Assay Overlay (0.3% Avicel RC-591 (FMC Biopolymer UK, Girvan, Scotland)) in MEM, supplemented to a final concentration of 2% FCS), and left for 7 days at 37° C./5% CO2. Cells were fixed with ice-cold methanol for 10 min, then removed and cells subjected to two washes with sterile PBS. Cells were then stained with crystal violet solution (200 μL 0.1%, in distilled water) for 1 hr. Crystal violet solution was removed and cells rinsed with water before plaques were counted and virus titre enumerated.

hRSV/A/Long = assay: RSV infection in cotton rats: viral titre in lung (plaque assay); conditions: intranasal; for Virus titre in lung, Geometric Mean / Virus titre in lung, Median: day 4 post infection
Description: as §2
The supernatants of lung homogenates were diluted 1:10 and 1:100 in Eagle (E)-MEM. Confluent HEp2 monolayers in 24-well plates were infected in duplicate (50 μL of sample per well) starting with undiluted (neat) samples followed by diluted homogenates. After incubation for 1 hr (37° C./5% CO2) wells were overlaid with 0.75% methylcellulose medium and plates replaced in the 37° C. incubator. After incubation (for 4 days), the overlay was removed, the cells fixed with 0.1% crystal violet stain (for 1 hr) and then rinsed and air-dried. Plaques were counted and viral titers were expressed as plaque forming units per gram (pfu.g^−1) of tissue.

RSV B Washington strain = assay: RSV B induced CPE in HEp2 cells; format: cell-based; conditions: human respiratory syncytial virus
Procedure, shortened: as §1

RSV NS-1 gene = assay: RSV infection in cotton rats: RSV NS-1 gene expression in lung (qRT-PCR); format: in vivo, Sigmodon hispidus cotton rats; conditions: intranasal

## Cc1cnc(N2CC3(CCOCC3)C2)c(C(=O)Nc2ccc(C(=O)N3CCc4cc(C(=O)Nc5c(F)cccc5F)sc4-c4sccc43)cc2)c1 [Example 1, N-(2,6-Difluorophenyl)-4-(4-(5-methyl-2-(7-oxa-2-azaspiro[3.5]nonan-2-yl)nicotinamido)benzoyl)-5,6-dihydro-4H-dithieno[3,2-b:2′,3′-d]azepine-8-carboxamide]
[1]
  CC50 at 5 days: > 13800 nM
RSV A2 strain; HEp-2, 120 h, 5 days
  pIC50: 9.96
RSV A2 strain; HEp-2, at 0.01 μg/mL
  inhibition at 0.01 µg/mL: 100%
RANTES gene
  inhibition of RANTES transcripts in lung (in words): dose-dependent inhibition
RANTES gene; 0.33 mg/mL
  RANTES gene transcript % Inhibition: −8%
  RANTES gene transcript (/β-actin), Median: 3.9
RANTES gene; 1.0 mg/mL
  RANTES gene transcript % Inhibition: 36%
  RANTES gene transcript (/β-actin), Median: 2.3
RANTES gene; 3.3 mg/mL
  RANTES gene transcript % Inhibition: 36%
  RANTES gene transcript (/β-actin), Median: 2.3
RANTES gene; 10 mg/mL
  RANTES gene transcript % Inhibition: 61%
  RANTES gene transcript (/β-actin), Median: 1.4
RSV A2 [2]
  pIC50: 10.68
  IC90: 0.078 nM
RSV A2 [3]; day 0
  Virus titre in apical wash, geometric mean: 0 log PFU/mL
RSV A2 [3]; day 1
  Virus titre in apical wash, geometric mean: 2.14 log PFU/mL
RSV A2 [3]; day 2
  Virus titre in apical wash, geometric mean: 3.05 log PFU/mL
RSV A2 [3]; day 3
  Virus titre in apical wash, geometric mean: 5.18 log PFU/mL
RSV A2 [3]; day 4
  Virus titre in apical wash, geometric mean: 3.55 log PFU/mL
RSV A2 [3]; day 5
  Virus titre in apical wash, geometric mean: 3.68 log PFU/mL
RSV A2 [3]; day 6
  Virus titre in apical wash, geometric mean: 2.24 log PFU/mL
RSV A2 [3]; day 7
  Virus titre in apical wash, geometric mean: 1.71 log PFU/mL
RSV A2 [3]; late stage intervention
  inhibition of virus titre in ALI culture (in words): completely inhibited virus titre
hRSV/A/Long; 0.1 mg/mL
  Virus titre in lung, Geometric Mean: 5.4 log, PFU/lung
  Virus titre in lung, Median: 5.4 log, PFU/lung
hRSV/A/Long; 0.33 mg/mL
  Virus titre in lung, Geometric Mean: 5.0 log, PFU/lung
  Virus titre in lung, Median: 5.0 log, PFU/lung
hRSV/A/Long; 1.0 mg/mL
  Virus titre in lung, Geometric Mean: 4.3 log, PFU/lung
  Virus titre in lung, Median: 4.3 log, PFU/lung
hRSV/A/Long; 3.3 mg/mL
  Virus titre in lung, Geometric Mean: <2.3^2 log, PFU/lung
  Virus titre in lung, Median: <2.3 log, PFU/lung
hRSV/A/Long; RSV/A/Long infected cotton rats
  inhibition of viral titre in lung homogenates (in words): potent dose-dependent inhibition of viral titre; also recorded: completely inhibited virus titre
RSV B Washington strain; HEp-2, 144 h, 6 days
  pIC50: 8.05
RSV B Washington strain; HEp-2, at 0.1 μg/mL
  inhibition at 0.1 µg/mL: 100%
RSV NS-1 gene
  inhibition of RSV NS-1 gene transcripts (in words): dose-dependent inhibition
RSV NS-1 gene; 0.33 mg/mL
  RSV NS1 gene transcript % inhibition: −42%
  RSV NS1 gene transcript (/β-actin), Median: 4.4
RSV NS-1 gene; 1.0 mg/mL
  RSV NS1 gene transcript % inhibition: 39%
  RSV NS1 gene transcript (/β-actin), Median: 1.9
RSV NS-1 gene; 3.3 mg/mL
  RSV NS1 gene transcript % inhibition: 48%
  RSV NS1 gene transcript (/β-actin), Median: 1.6
RSV NS-1 gene; 10 mg/mL
  RSV NS1 gene transcript % inhibition: 68%
  RSV NS1 gene transcript (/β-actin), Median: 1.0
